We go through 3 molecules from ChEMBL document CHEMBL3785008, “Piperine in food: interference in the pharmacokinetics of phenytoin” (Eur J Drug Metab Pharmacokinet, 2001).

Data set [1] in a line: Clearance in healthy adult human subjects at 300 mg, po by HPLC method. It counts as ADME, organism-based. The following applies: in vivo.
The test system of data set [2] is Homo sapiens. The data set is described as follows: Volume of distribution in healthy adult human subjects at 300 mg, po dosed 30 minutes after ingestion of soup (melahu rasam) with black pepper by HPLC method. It counts as ADME, organism-based. Particulars: in vivo, 0.5 h.
For data set [3], the system named is Homo sapiens. As to the kind of experiment: Drug lag time in healthy adult human subjects at 300 mg, po by HPLC method. Type of data set: ADME, organism-based. The following applies: in vivo.
Data set [4] is described as follows: AUC (0 to 10 hrs) in normal Swiss albino mouse at 10 mg, po by HPLC method. Particulars: in vivo. Further details: time < 10 hr, dose 10 mg, route oral. Type of data set: ADME, organism-based.
A short description of data set [5]: AUC (0 to 48 hrs) in healthy adult human subjects at 300 mg, po by HPLC method. It counts as ADME, organism-based. More on the design: time < 48 hr, dose 300 mg, route oral. Particulars: in vivo.
A short description of data set [6]: Tmax in healthy adult human subjects at 300 mg, po by HPLC method. It counts as ADME, organism-based. Particulars: in vivo.
Data set [7] in a line: Cmax in healthy adult human subjects at 300 mg, po by HPLC method. Type of data set: ADME, organism-based. Further details: dose 300 mg, route oral. Particulars: in vivo.
Data set [8] is described as follows: Clearance in healthy adult human subjects at 300 mg, po dosed 30 minutes after ingestion of soup (melahu rasam) with black pepper by HPLC method. It counts as ADME, organism-based. Particulars: in vivo.
Data set [9] in a line: Mean residence time in healthy adult human subjects at 300 mg, po by HPLC method. It counts as ADME, organism-based. The following applies: in vivo.
Data set [10] deals with Homo sapiens. The data set is described as follows: Volume of distribution in healthy adult human subjects at 300 mg, po by HPLC method. Type of data set: ADME, organism-based. Particulars: in vivo.
Data set [11] concerns Homo sapiens. The data set is described as follows: Drug absorption in healthy adult human subjects at 300 mg, po by HPLC method. Particulars: in vivo. It counts as ADME, organism-based.
Data set [12] has as its system Mus musculus. As to the kind of experiment: Ratio of drug level in 0.6 mg, po piperine pre-treated Swiss albino mouse at 10 mg, po to drug level in normal Swiss albino mouse at 10 mg, po. The following applies: in vivo. Type of data set: ADME, organism-based.
The nature of data set [13]: AUC (0 to infinity) in healthy adult human subjects at 300 mg, po dosed 30 minutes after ingestion of soup (melahu rasam) with black pepper by HPLC method. Further details: dose 300 mg, time infinity, route oral. Type of data set: ADME, organism-based. Particulars: in vivo.
Data set [14] concerns Homo sapiens. As to the kind of experiment: Drug absorption in healthy adult human subjects at 300 mg, po dosed 30 minutes after ingestion of soup (melahu rasam) with black pepper by HPLC method. Particulars: in vivo, 0.5 h. Type of data set: ADME, organism-based.
The nature of data set [15]: AUC (0 to 48 hrs) in healthy adult human subjects at 300 mg, po dosed 30 minutes after ingestion of soup (melahu rasam) with black pepper by HPLC method. The following applies: in vivo. More on the design: time < 48 hr, dose 300 mg, route oral. It counts as ADME, organism-based.
Data set [16] can be described thus: Mean residence time in healthy adult human subjects at 300 mg, po dosed 30 minutes after ingestion of soup (melahu rasam) with black pepper by HPLC method. It counts as ADME, organism-based. The following applies: in vivo.
Data set [17] can be described thus: Cmax in healthy adult human subjects at 300 mg, po dosed 30 minutes after ingestion of soup (melahu rasam) with black pepper by HPLC method. Type of data set: ADME, organism-based. Further details: dose 300 mg, route oral. The following applies: in vivo.
Data set [18] is described as follows: Tmax in healthy adult human subjects at 300 mg, po dosed 30 minutes after ingestion of soup (melahu rasam) with black pepper by HPLC method. It counts as ADME, organism-based. The following applies: in vivo.
A short description of data set [19]: Elimination half life in healthy adult human subjects at 300 mg, po dosed 30 minutes after ingestion of soup (melahu rasam) with black pepper by HPLC method. It counts as ADME, organism-based. The following applies: in vivo, read-out: beta t1/2 (converted).
The nature of data set [20]: Elimination half life in healthy adult human subjects at 300 mg, po by HPLC method. It counts as ADME, organism-based. Particulars: in vivo, read-out: beta t1/2 (converted).
Data set [21] in a line: AUC (0 to infinity) in healthy adult human subjects at 300 mg, po by HPLC method. It counts as ADME, organism-based. More on the design: dose 300 mg, route oral, time infinity. Particulars: in vivo.
The nature of data set [22]: AUC (0 to 10 hrs) in 0.6 mg, po piperine pre-treated Swiss albino mouse at 10 mg, po by HPLC method. It counts as ADME, organism-based. Further details: dose 0.6 mg, time < 10 hr, route oral. The following applies: in vivo.
Data set [23] concerns Homo sapiens. As to the kind of experiment: Drug lag time in healthy adult human subjects at 300 mg, po dosed 30 minutes after ingestion of soup (melahu rasam) with black pepper by HPLC method. Particulars: in vivo, 0.5 h. It counts as ADME, organism-based.
A short description of data set [24]: Drug excretion in human urine assessed as hydroxyphenylphenylhydantoin and glucuronide conjugate level. Type of data set: ADME, tissue-based.
The nature of data set [25]: Cmax in healthy adult human subjects after consumption of 44 mg equivalent of piperine in form of pepper in soup (melahu rasam) by HPLC method. Type of data set: ADME, organism-based. Particulars: in vivo, po. Further details: dose 44 mg.
Data set [26] in a line: Tmax in healthy adult human subjects after consumption of 44 mg equivalent of piperine in form of pepper in soup (melahu rasam) by HPLC method. Type of data set: ADME, organism-based. Particulars: in vivo, po.
The nature of data set [27]: AUC (0 to infinity) in healthy adult human subjects after consumption of 44 mg equivalent of piperine in form of pepper in soup (melahu rasam) by HPLC method. Type of data set: ADME, organism-based. Further details: dose 44 mg, time infinity. Particulars: in vivo, po.
A short description of data set [28]: AUC (0 to 12.5 hrs) in healthy adult human subjects after consumption of 44 mg equivalent of piperine in form of pepper in soup (melahu rasam) by HPLC method. Further details: dose 44 mg, time < 12.5 hr. The following applies: in vivo, po. Type of data set: ADME, organism-based.
The species named for data set [29] is Homo sapiens. The data set is described as follows: Drug absorption rate constant in healthy adult human subjects after consumption of 44 mg equivalent of piperine in form of pepper in soup (melahu rasam) by HPLC method. Type of data set: ADME, organism-based. The following applies: in vivo, po.
A short description of data set [30]: Tmax in Swiss albino mouse serum at 0.3 mg, po by HPLC method. Type of data set: ADME, organism-based.
Data set [31] in a line: Cmax in Swiss albino mouse serum at 0.3 mg, po by HPLC method. It counts as ADME, organism-based. More on the design: dose 0.3 mg, route oral.
Data set [32] in a line: Drug elimination rate constant in healthy adult human subjects after consumption of 44 mg equivalent of piperine in form of pepper in soup (melahu rasam) by HPLC method. Type of data set: ADME, organism-based. The following applies: in vivo, po.

For the molecule `O=C1N=C([O-])NC1(c1ccccc1)c1ccccc1.[Na+]` [PHENYTOIN SODIUM], the CL/F – broadly, the apparent clearance, not corrected for the fraction that reaches the circulation – was found to be 41.3 mL/min in [1] and 15.9 mL/min in [8]. For the same molecule, the Vd in data set [2] came to 64.58 L; in data set [10] it was 65.02 L. The Tlag turned out to be 0.655 h in data set [3] and 0.168 h in [23]. For the same molecule, the AUC(0-t) – broadly, exposure summed from dosing to a finite time, without extrapolation to infinity – at 10 h was 716 µg·h/mL in data set [4] and 891 µg·h/mL in data set [22]. In addition, the results for the AUC(0-t) at 48 h in data set [5] and in [15] were 102 µg·h/mL and 153 µg·h/mL, respectively. Further, the Tmax (as a rule, the time from dosing to the highest level) amounted to 5.32 h in [6] and 3.38 h in [18]. Also, the Cmax – broadly, the maximum level reached in the sampled fluid or tissue – in data set [7] came to 3820 ng/mL; in data set [17], 4310 ng/mL. The values for the MRT in data set [9] and in [16] were 34.2 h and 70.9 h, respectively. Besides, the ka in data set [11] is 0.666 h⁻¹; in data set [14], 1.177 h⁻¹. Also, the Ratio in data set [12] was found to be 1.8. In addition, the AUC(0-inf) (as a rule, the area under the concentration-time curve extrapolated to infinity) in data set [13] worked out at 332 µg·h/mL; in data set [21] it was 143 µg·h/mL. In addition, the half-life in data set [19] is 49.7 h; in data set [20], 22.5 h.

Turning to `O=C1NC(=O)C(c2ccccc2)(c2ccccc2)N1` [PHENYTOIN], the Drug excretion in data set [24] turned out to be 60%.

Regarding `O=C(/C=C/C=C/c1ccc2c(c1)OCO2)N1CCCCC1` [PIPERINE], the figures for the Cmax in data set [25] and in data set [31] were 400 ng/mL and 5470 ng/mL, respectively. Moreover, the Tmax in [26] came out at 2.5 h; in [30], 6 h. Moreover, the area under the curve AUC(0-inf) in data set [27] was 5.3 µg·h/mL. In data set [28], the AUC(0-t) at 12.5 h came to 3.37 µg·h/mL. Also, the ka in data set [29] was determined as 1.41 h⁻¹. The k el in data set [32] is 2.22e-05 s⁻¹.
